The results in this text go back to patent US8604206B2, “Compositions for preventing and/or treating degenerative disorders of the central nervous system” (Amicus Therapeutics, Inc., priority 2009, dated 2013).

By Ki is commonly meant the equilibrium dissociation constant of an inhibitor or competing ligand from its target. By IC50 is commonly meant the midpoint of a concentration-inhibition curve. One may read the EC50 as the concentration that produces a half-maximal response. Usually Emax stands for the size of the effect at its maximum, as opposed to the concentration needed.

The target in test [1] is GCase (Homo sapiens (Human), UniProt P04062). Kind of test: GCase activity enhancement (EC50, Emax) of Table 2B. The format is cell-based.
GCase, sequence (P04062 40-536): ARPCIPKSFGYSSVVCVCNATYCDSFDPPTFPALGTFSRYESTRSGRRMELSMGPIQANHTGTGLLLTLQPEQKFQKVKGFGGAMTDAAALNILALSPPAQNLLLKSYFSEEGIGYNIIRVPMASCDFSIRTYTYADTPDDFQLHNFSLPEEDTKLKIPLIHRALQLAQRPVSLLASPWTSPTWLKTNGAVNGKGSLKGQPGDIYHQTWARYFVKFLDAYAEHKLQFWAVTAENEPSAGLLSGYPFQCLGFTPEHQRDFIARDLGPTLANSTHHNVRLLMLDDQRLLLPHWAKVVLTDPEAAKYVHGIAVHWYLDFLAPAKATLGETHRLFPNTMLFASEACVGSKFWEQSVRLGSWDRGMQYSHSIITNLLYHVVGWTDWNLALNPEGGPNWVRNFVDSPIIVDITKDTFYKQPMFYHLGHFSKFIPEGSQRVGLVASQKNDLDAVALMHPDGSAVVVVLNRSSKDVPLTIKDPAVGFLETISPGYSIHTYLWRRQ
The target in test [2] is lysosomal GCase (Homo sapiens (Human), UniProt P04062). Kind of test: In situ lysosomal GCase inhibition and washout assay in fibroblasts from a normal subject. The settings on record: for in situ washout: fibroblasts treated at IC90, then drug-free medium; for IC50: fibroblasts, 16-24 hours with compound, PFBFDβGlu substrate. The format is cell-based. The procedure:
The effect of the novel compounds of the present invention on lysosomal GCase activity was assayed in situ using fibroblasts established from a normal subject. Cells seeded in 48-well plates were incubated with the indicated concentrations of compound for 16-24 hours. For the dose-response assays, cells were incubated with the in situ substrate 5-(pentafluorobenzoylamino)fluorescein di-β-D-glucopyranoside (PFBFDβGlu) for 1 hour and subsequently lysed to determine the extent of substrate hydrolysis in the presence of compound. […] Inhibition was determined as the ratio of activity in the presence of compound to that in the absence of compound. […] Cells were washed extensively and incubated in drug-free medium to allow net compound efflux from cells. Cells were then tested for lysosomal GCase activity at 2 hour intervals over a total period of 8 hours following compound removal. The increase in activity over time was fitted with a single exponential function to determine the compound's washout time.

For test [3], the target named is recombinant human GCase (rhGCase; Cerezyme®) (Homo sapiens (Human), UniProt P04062, R534H). Kind of test: In vitro enzyme inhibition assay (4-MU-β-D-Glc substrate), inhibition constants. The format is biochemical. The procedure: The binding affinity (defined here by Ki binding constant) of GCase for novel compounds of the present invention were empirically determined using enzyme inhibition assays. In brief, the enzyme inhibition assays used monitored the ability of a test compound to bind and prevent the hydrolysis of a fluorogenic substrate in a concentration-dependent mariner. Specifically, the enzyme activity of recombinant human GCase (rhGCase; Cerezyme®, Genzyme Corp.) was measured using the 4-methylumbelliferyl-β-D-glucopyranoside (4-MU-β-D-Glc) fluorogenic substrate in the absence or in the presence of varying amounts of each test compound. […] The enzyme inhibition assays were performed at both pH 7.0 (endoplasmic reticulum pH) and at pH 5.2 (lysosomal pH) to gain insight into the binding affinity (i.e., potency) of compounds for GCase in the endoplasmic reticulum and lysososome.
recombinant human GCase (rhGCase; Cerezyme®), sequence (P04062 40-536 R534H limits assumed): as the sequence (P04062 40-536) above, with R495H counted along it
Various concentrations of test compounds were prepared in buffer “M” consisting of 50 mM sodium phosphate buffer with 0.25% sodium taurocholate at pH 7.0 and pH 5.2. Enzyme (Cerezyme®, a recombinant form of the human enzyme β-glucocerebrosidase) was also diluted in the same buffer “M” at pH 7.0 and pH 5.2. […] Five microliters of diluted enzyme was added to 15 μl of the various inhibitor concentrations or buffer “M” alone and incubated at 37° C. for 1 hour with 50 μl of the substrate preparation to assess β-glucosidase activity at pH 7.0 and pH 5.2. […] Fluorescence was measured on a plate reader for 1 sec/well using 355 nm excitation and 460 nm emission.

Where [4] appears, read: pH 5.2, Cheng-Prusoff from IC50, read-out: Ki (μM) pH 5.2.
Where [5] appears, read: pH 5.2, read-out: IC50 (μM) pH 5.2.
Where [6] appears, read: pH 7.0, Cheng-Prusoff from IC50, read-out: Ki (μM) pH 7.0.
Where [7] appears, read: pH 7.0, read-out: IC50 (μM) pH 7.0.
[8] abbreviates: pH 5.2, repeated in Table 3A, read-out: Ki pH 5.2.
Setting [9] is: pH 5.2, repeated in Table 3B, read-out: Ki pH 5.2.

Structures can show the parent of a compound that is named as a salt. Where two headings read alike, the source gives them in different places.

lysosomal GCase, sequence (P04062 40-536): as the sequence (P04062 40-536) above

`CC(O)[C@H]1CNC[C@@H](O)[C@@H]1O` (single isomer, unassigned): in test [1] (compared to reference compound IFG-tartrate), the “increase in GCase activity compared to IFG-tartrate” value was “enhanced enzyme activity to the same maximum level as reference compound IFG-tartrate at much lower concentration”. In addition, the “inhibition of GCase activity” value in test [2] is “inhibited GCase activity”.
Turning to `CC(O)[C@H]1CNC[C@@H](O)[C@@H]1O` (single isomer, unassigned) [Cmpd 9], the Ki amounted to 0.044 ± 0.0017 µM in test [3] (setting [4]) and 0.01 ± 0.0004 µM in test [3] (setting [6]). Further, the IC50 turned out to be 0.107 ± 0.0041 µM in test [3] (setting [5]), 0.02 ± 0.0008 µM in test [3] (setting [7]) and 518 ± 22 nM in test [2]. The EC50 in test [1] came out at 490 ± 60 nM. In test [1], the Emax was 83.7 ± 2.9%. Besides, in test [2], the “in situ washout” value is 10.5 ± 1.75 h.
Turning to `C[C@H](O)[C@H]1CNC[C@@H](O)[C@@H]1O` (single isomer, unassigned) [Cmpd 10], the Ki in test [3] (setting [4]) amounted to 0.142 ± 0.0088 µM; in test [3] (setting [6]), 0.035 ± 0.0021 µM. Moreover, the IC50 in test [3] (setting [5]) stood at 0.343 ± 0.021 µM; in test [3] (setting [7]), 0.066 ± 0.0041 µM; in test [2] it was 798 ± 43 nM. Further, the EC50 in test [1] is 1060 ± 120 nM. The “in situ washout” value in test [2] turned out to be 12 ± 1.65 h.
Turning to `C[C@H](F)C1CNC[C@@H](O)[C@@H]1O` (stereo in doubt) [Cmpd 13, (3R,4R,5R)-5((S)-1-Fluoroethyl)piperidine 3,4-diol Hydrochloride], the “in situ washout” value in test [2] was found to be 2.7 ± 0.12 h.
On to `O[C@@H]1[C@@H]([C@H](O)c2ccccc2)CNC[C@H]1O` [(3R,4R,5R)-5-((S)-hydroxy(phenyl)methyl)-piperidine-3,4-diol], for which the Ki in test [3] (setting [4]) is 1.36 ± 0.1 µM; in test [3] (setting [8]), 1.36 ± 0.1 µM; in test [3] (setting [9]), 1.36 ± 0.1 µM; in test [3] (setting [6]) it was 0.0089 ± 0.0018 µM. For the same compound, the half-maximal inhibitory concentration (IC50) in test [3] (setting [5]) amounted to 3.29 ± 0.25 µM; in test [3] (setting [7]), 0.017 ± 0.0035 µM. Moreover, the concentration giving a half-maximal response (EC50) in test [1] came to 4990 ± 860 nM.
Turning to `CC(C)(O)[C@H]1CNC[C@@H](O)[C@@H]1O` [(3R,4R,5S)-5-(2-hydroxypropan-2-yl)piperidine-3,4-diol], the Ki came out at 0.097 ± 0.0015 µM in test [3] (setting [4]), 0.097 ± 0.0015 µM in test [3] (setting [8]), 0.097 ± 0.0015 µM in test [3] (setting [9]) and 0.015 ± 0.0007 µM in test [3] (setting [6]). Also, the IC50 in test [3] (setting [5]) worked out at 0.234 ± 0.0037 µM; in test [3] (setting [7]) it was 0.029 ± 0.0013 µM. Moreover, the EC50 in test [1] was 791 ± 162 nM.
With `C[C@@H](F)[C@@H]1CNC[C@@H](O)[C@@H]1O.Cl` [Cmpd 14, (3R,4R,5R)-5((R)-(1-Fluoroethyl)piperidine 3,4-diol Hydrochloride], the inhibition constant Ki in test [3] (setting [4]) is 0.016 ± 0.0007 µM; in test [3] (setting [6]) it was 0.004 ± 0.0001 µM. Moreover, the IC50 in test [3] (setting [5]) is 0.038 ± 0.0016 µM; in test [3] (setting [7]), 0.007 ± 0.0003 µM; in test [2], 61 ± 19 nM. For the same compound, the EC50 in test [1] came to 26 ± 3 nM.
With `C[C@@H](F)[C@@H]1CNC[C@@H](O)[C@@H]1O.Cl` [Cmpd 14], the “Emax (%)” value in test [1] was 89.7 ± 3.5%. Also, in test [2], the “in situ washout” value was 3.7 ± 0.63 h.
